Measured values from patent US20040082757A1, “Echinocandin derivatives, pharmaceutical compositions containing same and use thereof as drugs” (priority 2001, published 2004).
Numbered stars: 1 amine (or outer) side, 2 acyl side, 3 side chain; on linkers, the order of the positions; unused ones are H or OH. Bridge positions count the residues as written; N and C are the ends. Square brackets hold non-standard residues; d marks the D form. Peptide text beside a SMILES is read from it. * marks the point of attachment. ξ: configuration not given here. ξhTyr(βξ-OH,3-OSO3H) = NC(C(=O)O)C(O)Cc1ccc(O)c(OS(=O)(=O)O)c1; ξOrn(4,5-diOH) = O=C(C(CC(O)C(O)N[*:3])N[*:1])[*:2]; X3 = CCCCCOc1ccc(-c2cc(-c3ccc(C(=O)*)cc3)no2)cc1; ξOrn(4ξ-OH) = O=C(C(CC(O)CN[*:3])N[*:1])[*:2]; ξPro(3ξ-OH,4ξ-Me) = CC1CNC(C(=O)O)C1O; X2 = NC(=O)CC(O)C(N[*:1])C(=O)[*:2]; X1 = O=C(C1C(O)C(O)CN1[*:1])[*:2]; ξT = CC(O)C(N)C(=O)O

Tests used:
[1] = test system: Candida albicans FP 633; assay: Antimicrobial activity test: antifungal susceptibility by microdilution method (NCCLS M27-A), MIC; type: cell-based; settings: FP633, RPMI 1640, pH 7.0, 35° C., lowest concentration with no visible growth
Experimental: The antifungal susceptibility assays were performed by the microdilution method according to M27-A guidelines recommended by the National Committee for Clinical Laboratory Standards (NCCLS) to determine the MICs of the compounds. RPMI 1640 medium with L-glutamine, without sodium bicarbonate and buffered with 165 mM morpholinepropanesulfonic acid buffer (pH 7.0) was used as a test medium. Inoculum suspension of 10^6 CFU/ml were prepared by a hemocytometric procedure and diluted to obtain an inoculum size of approximately 0.5×10^3 to 2.5×10^3 CFU/ml. Microplates were incubated at 35° C., and readings were taken when good growth in the growth control. The MICs were defined as the lowest concentrations at which no visible growth was observed.

SMILES | melting point | MIC [1] [mg/L]
CC(O)C1NC(=O)C(N)CC(O)CNC(=O)C2C(O)C(C)CN2C(=O)C(C(O)CC(N)=O)NC(=O)C(C(O)Cc2ccc(O)c(OS(=O)(=O)O)c2)NC(=O)C2CCCN2C1=O (stereo not drawn) [Object Compound (1)] (H-[ξOrn(4ξ-OH)]TP[ξhTyr(βξ-OH,3-OSO3H)][X2][ξPro(3ξ-OH,4ξ-Me)]; lactam 1-C; configuration not given here) | 250 to 260 °C (dec.) | 
CC(O)C1NC(=O)C(N)CC(O)C(O)NC(=O)C2C(O)C(C)CN2C(=O)C(C(O)CC(N)=O)NC(=O)C(C(O)Cc2ccc(O)c(OS(=O)(=O)O)c2)NC(=O)C2C(O)C(O)CN2C1=O (stereo not drawn) [Object Compound (2)] (H-[ξOrn(4,5-diOH)][ξT][X1][ξhTyr(βξ-OH,3-OSO3H)][X2][ξPro(3ξ-OH,4ξ-Me)]; lactam 1-C) | 215 to 220 °C (dec.) | 
CC1CN2C(=O)C(C(O)CC(N)=O)NC(=O)C(C(O)Cc3ccc(O)c(OS(=O)(=O)O)c3)NC(=O)C3CCCN3C(=O)C(CO)NC(=O)C(N)CC(O)CNC(=O)C2C1O (stereo not drawn) [Object Compound (3)] (H-[ξOrn(4ξ-OH)]SP[ξhTyr(βξ-OH,3-OSO3H)][X2][ξPro(3ξ-OH,4ξ-Me)]; lactam 1-C; configuration not given here) | 255 to 260 °C (dec.) | 
CCCCCOc1ccc(-c2cc(-c3ccc(C(=O)NC4CC(O)CNC(=O)C5C(O)C(C)CN5C(=O)C(C(O)CC(N)=O)NC(=O)C(C(O)Cc5ccc(O)c(OS(=O)(=O)[O-])c5)NC(=O)C5CCCN5C(=O)C(C(C)O)NC4=O)cc3)no2)cc1.[Na+] (stereo not drawn) [Object Compound (8)] (X3-[ξOrn(4ξ-OH)]TP[ξhTyr(βξ-OH,3-OSO3H)][X2][ξPro(3ξ-OH,4ξ-Me)]; lactam 1-C; configuration not given here) |  | < 0.1
CCCCCOc1ccc(-c2cc(-c3ccc(C(=O)NC4CC(O)C(O)NC(=O)C5C(O)C(C)CN5C(=O)C(C(O)CC(N)=O)NC(=O)C(C(O)Cc5ccc(O)c(OS(=O)(=O)[O-])c5)NC(=O)C5C(O)C(O)CN5C(=O)C(C(C)O)NC4=O)cc3)no2)cc1.[Na+] (stereo not drawn) [Object Compound (9)] |  | < 0.02
CCCCCOc1ccc(-c2cc(-c3ccc(C(=O)NC4CC(O)CNC(=O)C5C(O)C(C)CN5C(=O)C(C(O)CC(N)=O)NC(=O)C(C(O)Cc5ccc(O)c(OS(=O)(=O)[O-])c5)NC(=O)C5CCCN5C(=O)C(CO)NC4=O)cc3)no2)cc1.[Na+] (stereo not drawn) [Object Compound (10)] (X3-[ξOrn(4ξ-OH)]SP[ξhTyr(βξ-OH,3-OSO3H)][X2][ξPro(3ξ-OH,4ξ-Me)]; lactam 1-C; configuration not given here) |  | < 0.1
